# What was measured:
# [1] = test system: human head and neck cancer cell line (HTB41/-43); assay: Intratumoral injection of head and neck cancer tumors in nude mice; assay type: in vivo; details: tumors in the abdomen injected, over 10 days; K-21 at 5% by weight
# Procedure: Nude mice were injected with human head and neck cancer cell line (HTB41/-43). […] The size of the sham injected tumors grew most rapidly over 10 days.
# IL-1 = assay: Flow cytometry of skin cells for the inflammatory cytokine IL-1; assay type: in vivo, C57/BL6 mice; details: Group II, DMBA alone
# Procedure: These animals received no other treatment.
# Flow cytometry analyses: The skin and some associated soft tissues on the backs of all mice were excised. Representative portions of the skin and dermis were prepared for flow cytometry analysis by being divided into single cell suspensins using a 100 μm cell strainer followed by centrifugation (1500 rpm, 10 mm). Analysis of cells for detection of the inflammatory cytokine IL-1 was performed by fixing, permeabilizing, and staining of cells and running flow cyctopmetry using a FACS Calibur BD Flow Cytometer.
# shaved skin of mice = assay: Topical irritation and DMBA skin tumor study in mice; details: Group II
# Procedure: K-21 was dissolved in acetone to enhance its ability to wet the shaved skin on the backs of experimental mice. Mice in the positive control group were treated with a topical chemical carcinogenic agent, dimethybena(α)anthracene (DMBA), dissolved in acetone.
# Thirty adult C57/BL6 mice were randomly divided into three groups of ten animals each to evaluate the topical irritation and potential anti-inflammatory properties of K-21. The hair on the back of all mice were shaved off with electric clippers.
# Group 1 animals received topical application of K-21 (100 μg/100 μL) in acetone twice a week for two weeks (days 3, 6, 9, and 12) over the shaved area. These animals received no other treatment. Group II mice received a topical single dose of DMBA (100 μg/100 μL) in acetone over the shaved skin on the animals back on day 7. Group III animals received the same treatment as Group II mice on day 7 plus they were treated with topical K-21, twice a week before (days 3, 6) and one week after (days 9 and 12) a single DMBA application on day 7.
# All animals were weighed daily, before and during the study to compare the weight gains of animals in all three groups. The behavior (eating, drinking, etc.) was monitored on a daily basis to determine if there was any gross skin irritation or initiation of tumors. […]
Compound,tumor growth [1],IL-1 positive cells of the total number of cells (IL-1) [%],"tumor formation (shaved skin of mice; single topical dose of DMBA on day 7, sacrificed day 14)","tumor diameter (shaved skin of mice; single topical dose of DMBA, day 14)"
N.N.[Cl][Pt][Cl] [Cisplatin],grew the least,–,–,–
"Cc1c2ccccc2c(C)c2c1ccc1ccccc12 [DMBA, dimethybena(α)anthracene]",–,6,Tumors formed in all ten,about 0.5 cm

# Reference: patent US20180064738A1, “METHOD OF TREATING INFECTIONS USING SILOXANE DERIVATIVES” (priority 2014, published 2018)
